Measurements from patent US20250000843A1, “LIGNAN-INSPIRED COMPOUNDS, METHODS OF MAKING, AND USING THEREOF” (IOWAIBO, INC., priority 2023, published 2025).

Assays:
[1] = tested on: MCF7 (human breast cancer cell line); assay: MTT toxicity assay in MCF7 breast cancer cells; format: cell-based
Experimental: Toxicity of the dibenzyl butyl lactone derivative (3-[(3,4-dimethoxyphenyl)cyclopentyl], 4-[(3-hydroxyphenol)methyl]oxolan-2-one) in breast cancer cells was evaluated using MTT assay. The MTT toxicity test is a colorimetric assay to measure cells' metabolic activity by serving as a substrate of cellular enzymes that reduce the tetrazolium orange dye, MTT (3-(4,5-Dimethylthiazol-2-yl)-2,5-diphenyltetrazolium bromide) to its insoluble, formazan, giving a purple color. The rate of conversion is directly proportional to cells' mitochondrial metabolic activity via NAD (P) H-dependent cellular oxidoreductase enzymes and serves as a surrogate marker of cell viability.
Cultures of MCF7 (human breast cancer cell line) working stock (5 passages) were established under standard culture conditions in Eagle's minimum essential medium (EMEM). EMEM was supplemented with 10% fetal bovine serum (FBS), 2 mM Glutamine and Pen/Strep, and Penicillin 0.01 mg/ml.
Cells previously expanded were seeded in 96 well plates at 1.9×10^5 and 9.6×10^4 cells/plate for 24- and 72-hours treatment respectively. This concentration is known to show the best window for the MTT assay, with better sensitivity and low variability.
5 mg of powdered enterolactone, dibenzyl butyl lactone derivative enantiomer A, and dibenzyl butyl lactone derivative enantiomer B were dissolved in 500 μl of DMSO at room temperature. Eight-point curves, ⅓ dilutions (highest concentration 125 μM), were prepared.
Twenty-four hours following the seeding process, the cells were washed once with phosphate buffered saline (PBS) and treated with the respective compounds in cell culture media. Each condition was tested in triplicates. For positive and negative controls, 8 mM methyl methane sulfonate (MMS) and DMSO 100% were used respectively.
Following compound addition, the plates were incubated for 24 and 72 hours. After the treatment period, cells were washed twice with PBS and media was replaced with MTT reagent at 0.5 mg/ml in Dulbecco's modified Eagle medium (DMEM) without phenol red. The plates were gently shaken and incubated for 4 hours. After the incubation the medium was removed and replaced by DMSO. The plates were gently shaken to solubilize the formazan crystals. Absorbance was measured using an Envision multiplate reader at a wavelength of 570 nm.
Eight serial dilutions were prepared (125.00, 41.67, 13.89, 4.63, 1.54, 0.51, 0.17 and 0.06 µM to evaluate the compounds (in triplicate). MTT results showing cell death values above 20% are considered as having a significant toxic effect.
MTT assay results are shown in Tables 2-7 and expressed as the percentage of cell death after treatment.

[2] = tested on: human induced pluripotent stem (iPS) cells; format: cell-based; settings: human
Experimental: The dibenzyl butyl lactone derivative enantiomer A and B were compared to enterolactone and tested to determine toxicity using a human pluripotent stem (hPS) cell-based assay that predicts the developmental toxicity potential. […] The current study was conducted using human induced pluripotent stem (iPS) cells.
The impact of test article exposure on ornithine and cystine metabolism in human induced pluripotent stem (iPS) cells was measured for three test articles (dibenzyl butyl lactone derivative enantiomer A, dibenzyl butyl lactone derivative enantiomer B, and enterolactone) and prediction of the potential for developmental toxicity was made through application of the hPS cell-based assay. Exposure spanned a range of eight treatment levels per test article ranging from 0.03-100 μM.
The observed decrease in the o/c ratio following exposure to each test article is indicative of the potential for developmental toxicity and/or embryo lethality in vivo at or above the dTP concentration. FIGS. 15A-C show the o/c ratio of dibenzyl butyl lactone derivative enantiomer A (FIG. 15A), dibenzyl butyl lactone derivative enantiomer B (FIG. 15B), and (+/−) enterolactone (FIG. 15C). The graphs in FIGS. 15A-C show the cell viability and o/c/ ratio over concentrations of 0.03-100 μM with the straight horizontal line illustrating the developmental toxicity threshold of 0.85.

With `O=C1OCC(Cc2ccc3c(c2)OCO3)/C1=C\c1cccc(O)c1` (single isomer, unassigned) [Enantiomer A, 3-[(3,4-dimethoxyphenyl)cyclopentyl], 4-[(3-hydroxyphenol)methyl]oxolan-2-one] the “Cell death #1 (%)” value ([1]; MCF7, 24 hours, 0.06 μM) was −25.82%, the “Cell death #2 (%)” value ([1]; MCF7, 24 hours, 0.06 μM) was −37.36% and the “Cell death #3 (%)” value ([1]; MCF7, 24 hours, 0.06 μM) was −35.43%. The “Cell death (%) MEAN” value ([1]; MCF7, 24 hours, 0.06 μM) was −32.87%, the “Cell death #1 (%)” value ([1]; MCF7, 24 hours, 0.17 μM) was −27.36% and the “Cell death #2 (%)” value ([1]; MCF7, 24 hours, 0.17 μM) was −44.28%. For the same compound, the “Cell death #3 (%)” value ([1]; MCF7, 24 hours, 0.17 μM) was −55.05%, the “Cell death (%) MEAN” value ([1]; MCF7, 24 hours, 0.17 μM) was −42.23% and the “Cell death #1 (%)” value ([1]; MCF7, 24 hours, 0.51 μM) was −57.74%. For the same compound, the “Cell death #2 (%)” value ([1]; MCF7, 24 hours, 0.51 μM) was −18.51%, the “Cell death #3 (%)” value ([1]; MCF7, 24 hours, 0.51 μM) was −45.82% and the “Cell death (%) MEAN” value ([1]; MCF7, 24 hours, 0.51 μM) was −40.69%. The “Cell death #1 (%)” value ([1]; MCF7, 24 hours, 1.54 μM) was −48.89%, the “Cell death #2 (%)” value ([1]; MCF7, 24 hours, 1.54 μM) was −51.59% and the “Cell death #3 (%)” value ([1]; MCF7, 24 hours, 1.54 μM) was −43.51%. For the same compound, the “Cell death (%) MEAN” value ([1]; MCF7, 24 hours, 1.54 μM) was −48.00%, the “Cell death #1 (%)” value ([1]; MCF7, 24 hours, 4.63 μM) was −58.89% and the “Cell death #2 (%)” value ([1]; MCF7, 24 hours, 4.63 μM) was −57.74%. For the same compound, the “Cell death #3 (%)” value ([1]; MCF7, 24 hours, 4.63 μM) was −34.66%, the “Cell death (%) MEAN” value ([1]; MCF7, 24 hours, 4.63 μM) was −50.43% and the “Cell death #1 (%)” value ([1]; MCF7, 24 hours, 13.89 μM) was −61.20%. For the same compound, the “Cell death #2 (%)” value ([1]; MCF7, 24 hours, 13.89 μM) was −35.05%, the “Cell death #3 (%)” value ([1]; MCF7, 24 hours, 13.89 μM) was −25.05% and the “Cell death (%) MEAN” value ([1]; MCF7, 24 hours, 13.89 μM) was −40.43%. The “Cell death #1 (%)” value ([1]; MCF7, 24 hours, 41.67 μM) was −83.51%, the “Cell death #2 (%)” value ([1]; MCF7, 24 hours, 41.67 μM) was −78.89% and the “Cell death #3 (%)” value ([1]; MCF7, 24 hours, 41.67 μM) was −45.05%. The “Cell death (%) MEAN” value ([1]; MCF7, 24 hours, 41.67 μM) was −69.15%, the “Cell death #1 (%)” value ([1]; MCF7, 24 hours, 125.00 μM) was 98.41% and the “Cell death #2 (%)” value ([1]; MCF7, 24 hours, 125.00 μM) was 95.72%. The “Cell death #3 (%)” value ([1]; MCF7, 24 hours, 125.00 μM) was 100.72%, the “Cell death (%) MEAN” value ([1]; MCF7, 24 hours, 125.00 μM) was 98.29% and the “Cell death #1 (%)” value ([1]; MCF7, 72 hours, 0.06 μM) was −51.17%. The “Cell death #2 (%)” value ([1]; MCF7, 72 hours, 0.06 μM) was −29.40%, the “Cell death #3 (%)” value ([1]; MCF7, 72 hours, 0.06 μM) was −11.64% and the “Cell death (%) MEAN” value ([1]; MCF7, 72 hours, 0.06 μM) was −30.74%. For the same compound, the “Cell death #1 (%)” value ([1]; MCF7, 72 hours, 0.17 μM) was −56.87%, the “Cell death #2 (%)” value ([1]; MCF7, 72 hours, 0.17 μM) was −58.21% and the “Cell death #3 (%)” value ([1]; MCF7, 72 hours, 0.17 μM) was −50.17%. For the same compound, the “Cell death (%) MEAN” value ([1]; MCF7, 72 hours, 0.17 μM) was −55.08%, the “Cell death #1 (%)” value ([1]; MCF7, 72 hours, 0.51 μM) was −79.98% and the “Cell death #2 (%)” value ([1]; MCF7, 72 hours, 0.51 μM) was −51.84%. For the same compound, the “Cell death #3 (%)” value ([1]; MCF7, 72 hours, 0.51 μM) was −72.61%, the “Cell death (%) MEAN” value ([1]; MCF7, 72 hours, 0.51 μM) was −68.15% and the “Cell death #1 (%)” value ([1]; MCF7, 72 hours, 1.54 μM) was −57.87%. For the same compound, the “Cell death #2 (%)” value ([1]; MCF7, 72 hours, 1.54 μM) was −73.62%, the “Cell death #3 (%)” value ([1]; MCF7, 72 hours, 1.54 μM) was −58.88% and the “Cell death (%) MEAN” value ([1]; MCF7, 72 hours, 1.54 μM) was −63.46%. For the same compound, the “Cell death #1 (%)” value ([1]; MCF7, 72 hours, 4.63 μM) was −90.37%, the “Cell death #2 (%)” value ([1]; MCF7, 72 hours, 4.63 μM) was −113.15% and the “Cell death #3 (%)” value ([1]; MCF7, 72 hours, 4.63 μM) was −79.31%. The “Cell death (%) MEAN” value ([1]; MCF7, 72 hours, 4.63 μM) was −94.28%, the “Cell death #1 (%)” value ([1]; MCF7, 72 hours, 13.89 μM) was −43.13% and the “Cell death #2 (%)” value ([1]; MCF7, 72 hours, 13.89 μM) was −52.85%. The “Cell death #3 (%)” value ([1]; MCF7, 72 hours, 13.89 μM) was −46.15%, the “Cell death (%) MEAN” value ([1]; MCF7, 72 hours, 13.89 μM) was −47.38% and the “Cell death #1 (%)” value ([1]; MCF7, 72 hours, 41.67 μM) was 15.49%. For the same compound, the “Cell death #2 (%)” value ([1]; MCF7, 72 hours, 41.67 μM) was 4.10%, the “Cell death #3 (%)” value ([1]; MCF7, 72 hours, 41.67 μM) was 2.76% and the “Cell death (%) MEAN” value ([1]; MCF7, 72 hours, 41.67 μM) was 7.45%. For the same compound, the “Cell death #1 (%)” value ([1]; MCF7, 72 hours, 125.00 μM) was 99.92%, the “Cell death #2 (%)” value ([1]; MCF7, 72 hours, 125.00 μM) was 99.92% and the “Cell death #3 (%)” value ([1]; MCF7, 72 hours, 125.00 μM) was 99.58%. The “Cell death (%) MEAN” value ([1]; MCF7, 72 hours, 125.00 μM) was 99.80%, the “breast cancer cell death as compared to enterolactone” value ([1]; MCF7, at higher concentrations, 24 hours and 72 hours post-treatment) was “increased breast cancer cell death as compared to enterolactone” and the “TP Concentration” value [2] was 34.8 µM. For the same compound, the “TP concentration, fold lower than (+/−) enterolactone TP” value [2] was 4-6 fold, the “dTP Concentration” value [2] was 21.4 µM and the “dTP and TP concentrations compared with anti-cancer drugs tested in this assay” value [2] was “higher than >90% of the anti-cancer drugs”. For the same compound, the “fold difference between dTP and TP” value [2] was ≤ 3 fold and the “similarity of dTP concentrations between all three compounds” value [2] was ≤ 2 fold.
